Each molecule was assayed against GST-hRIPK1 (8-327) (Homo sapiens (Human), UniProt Q13546) (assay: Fluorescent Polarization Binding (FP Binding) assay, RIPK1). Details: 10 nM GST-hRIPK1 (8-327), 5 nM fluorescent-labeled ligand, RT, 30 min, mean of at least two independent experiments.
Procedure: Fluorescent Polarization Binding (FP Binding) assay (Berger S. B. et al. (2015) Cell Death Discovery, 1: 15009; Maki J. L. et al. (2012) Anal Biochem., 427(2): 164-174) was performed in polystyrene low volume 384-well black plate, at RT in a final volume of 10.1 μl/well using 10 nM of GST-hRIPK1 (8-327) enzyme and 5 nM of fluorescent-labeled ligand (14-(2-{[3-({2-{[4-(cyanomethyl)phenyl]amino]-6-[(5-cyclopropyl-1H-pyrazol-3-yl)amino]-4-pyrimidinyl}amino) propyl}amino}-2-oxoethyl)-16,16,18,18-tetramethyl-6,7,7a,8a,9,10,16,18-octahydrobenzo [2″,3″]indolizino[8″,7″:5′,6′]pyrano [3′,2′:3,4]pyrido[1,2-a]indo1-5-ium-2-sulfonate.
Test compounds were serially diluted in DMSO at 100 fold final concentrations in the assay (1% DMSO final). In each well of a 384-well Plate were dispensed 0.1 μL of compound solution (or DMSO for controls) followed by 5 μL of GST-hRIPK1 (8-327) at twice the final concentrations in assay buffer (50 mM HEPES pH 7.5, 10 mM NaCl, 50 mM MgCl2, 0.02% CHAPS, 0.5 mM DTT and 0.01% Pluronic F127). For negative control the enzyme addition was replaced by assay buffer only.
After addition of 5 μL of fluorescentlabeled ligand at twice the final concentrations in assay buffer, the plate was incubated at RT for […]. At the end, the binding was measured as FP value with the Envision (PerkinElmer) plate reader using filter for an excitation λ=531 nm FP and an emission λ=595 nm FP (S & P-pol). GST-hRIPK1 (8-327) enzyme was produced via Baculovirus expression.
Test compound inhibition was expressed as percent inhibition of internal assay controls. For concentration response curves, normalized data is fit and IC50 determined using XL-fit (IDBS) for Excel. The IC50 values were averaged to determine a mean value, for a minimum of two independent experiments. Results are shown in Table 2 (RIPK1 IC50) values: +++=0.1 nM<IC50<100 nM; ++=100 nM<IC50<1 μM; +=1 μM<IC50).

Chain of GST-hRIPK1 (8-327) (Q13546 8-327): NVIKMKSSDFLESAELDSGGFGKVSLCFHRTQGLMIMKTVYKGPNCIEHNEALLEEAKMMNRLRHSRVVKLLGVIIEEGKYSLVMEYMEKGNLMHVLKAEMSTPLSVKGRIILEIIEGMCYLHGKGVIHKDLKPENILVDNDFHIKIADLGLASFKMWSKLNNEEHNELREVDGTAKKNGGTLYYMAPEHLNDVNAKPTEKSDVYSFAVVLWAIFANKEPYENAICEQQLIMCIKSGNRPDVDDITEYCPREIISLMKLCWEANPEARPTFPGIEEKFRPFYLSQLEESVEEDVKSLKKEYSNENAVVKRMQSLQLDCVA

Compound	IC50
N#Cc1cncc2c1OCCN(C(=O)[C@]13CCN(c4ncc(F)cn4)C[C@H]1C3)C2 (relative stereo) [Example 89, 4-(cis-3-(5-fluoropyrimidin-2-yl)-3-azabicyclo[4.1.0]heptane-6-carbonyl)-3,5-dihydro-2H-pyrido[3,4-f][1,4]oxazepine-9-carbonitrile]	0.1 to 100 nM

Same assay, conditions: GST-hRIPK1 (8-327), mean of at least two independent experiments

Compound	IC50
CC(C(=O)N1CCOc2c(C#N)cncc2C1)(C(F)F)C1CC1 (single isomer, unassigned) [Example 258, 4-(2-Cyclopropyl-3,3-difluoro-2-methyl-propanoyl)-3,5-dihydro-2H-pyrido[3,4-f][1,4]oxazepine-9-carbonitrile]	0.1 to 100 nM
CC(C(=O)N1CCOc2c(C#N)cncc2C1)(C(F)F)C1CC1 (single isomer, unassigned) [Example 259, 4-(2-Cyclopropyl-3,3-difluoro-2-methyl-propanoyl)-3,5-dihydro-2H-pyrido[3,4-f][1,4]oxazepine-9-carbonitrile]	100 to 1000 nM
CCC(C)(C(=O)N1CCOc2c(C#N)cncc2C1)C(F)F (single isomer, unassigned) [Example 260, 4-(2-(Difluoromethyl)-2-methylbutanoyl)-2,3,4,5-tetrahydropyrido[3,4-f][1,4]oxazepine-9-carbonitrile]	0.1 to 100 nM
CCC(C)(C(=O)N1CCOc2c(C#N)cncc2C1)C(F)F (single isomer, unassigned) [Example 261, 4-(2-(Difluoromethyl)-2-methylbutanoyl)-2,3,4,5-tetrahydropyrido[3,4-f][1,4]oxazepine-9-carbonitrile]	0.1 to 100 nM
CCC(C)(CC#N)C(=O)N1CCOc2c(C#N)cncc2C1 (single isomer, unassigned) [Example 264, 4-[2-(Cyanomethyl)-2-methyl-butanoyl]-3,5-dihydro-2H-pyrido[3,4-f][1,4]oxazepine-9-carbonitrile]	0.1 to 100 nM
CCC(C)(CC#N)C(=O)N1CCOc2c(C#N)cncc2C1 (single isomer, unassigned) [Example 265, 4-[2-(Cyanomethyl)-2-methyl-butanoyl]-3,5-dihydro-2H-pyrido[3,4-f][1,4]oxazepine-9-carbonitrile]	0.1 to 100 nM
CC(F)C(C)(C)C(=O)N1CCOc2c(C#N)cncc2C1 (single isomer, unassigned) [Example 270, 4-(3-fluoro-2,2-dimethyl-butanoyl)-3,5-dihydro-2H-pyrido[3,4-f][1,4]oxazepine-9-carbonitrile]	0.1 to 100 nM
CC(F)C(C)(C)C(=O)N1CCOc2c(C#N)cncc2C1 (single isomer, unassigned) [Example 272, 4-(3-Fluoro-2,2-dimethyl-butanoyl)-3,5-dihydro-2H-pyrido[3,4-f][1,4]oxazepine-9-carbonitrile]	0.1 to 100 nM
CC(F)C(C)(C)C(=O)N1CCOc2c(C#N)cncc2C1 (single isomer, unassigned) [Example 273, 4-(3-Fluoro-2,2-dimethyl-butanoyl)-3,5-dihydro-2H-pyrido[3,4-f][1,4]oxazepine-9-carbonitrile]	100 to 1000 nM
CC(C)(C(=O)N1CCOc2c(C#N)cncc2C1)C1CCN(c2ncc(F)cn2)C1 (single isomer, unassigned) [Example 280, 4-[2-(-1-(5-Fluoropyrimidin-2-yl)pyrrolidin-3-yl)-2-methyl-propanoyl]-3,5-dihydro-2H-pyrido[3,4-f][1,4]oxazepine-9-carbonitrile]	> 1000 nM
CC(C)(C(=O)N1CCOc2c(C#N)cncc2C1)C1CCN(c2ncc(F)cn2)C1 (single isomer, unassigned) [Example 281, 4-[2-(-1-(5-Fluoropyrimidin-2-yl)pyrrolidin-3-yl)-2-methyl-propanoyl]-3,5-dihydro-2H-pyrido[3,4-f][1,4]oxazepine-9-carbonitrile]	0.1 to 100 nM
CCC(C)(OC)C(=O)N1CCOc2c(C#N)cncc2C1 (single isomer, unassigned) [Example 282, 4-(2-Methoxy-2-methyl-butanoyl)-3,5-dihydro-2H-pyrido[3,4-f][1,4]oxazepine-9-carbonitrile]	100 to 1000 nM
CCC(C)(OC)C(=O)N1CCOc2c(C#N)cncc2C1 (single isomer, unassigned) [Example 283, 4-(-2-Methoxy-2-methyl-butanoyl)-3,5-dihydro-2H-pyrido[3,4-f][1,4]oxazepine-9-carbonitrile]	100 to 1000 nM
CC1(C(=O)N2CCOc3c(C#N)cncc3C2)CCN(c2ncc(F)cn2)CC1(F)F (single isomer, unassigned) [Example 284, 4-[3,3-Difluoro-1-(5-fluoropyrimidin-2-yl)-4-methyl-piperidine-4-carbonyl]-3,5-dihydro-2H-pyrido[3,4-f][1,4]oxazepine-9-carbonitrile]	0.1 to 100 nM
CC1(C(=O)N2CCOc3c(C#N)cncc3C2)CCN(c2ncc(F)cn2)CC1(F)F (single isomer, unassigned) [Example 285, 4-[-3,3-Difluoro-1-(5-fluoropyrimidin-2-yl)-4-methyl-piperidine-4-carbonyl]-3,5-dihydro-2H-pyrido[3,4-f][1,4]oxazepine-9-carbonitrile]	100 to 1000 nM
N#Cc1cncc2c1OCCN(C(=O)C1(F)CCN(c3ncc(F)cn3)CC1(F)F)C2 (single isomer, unassigned) [Example 295, 4-[3,3,4-Trifluoro-1-(5-fluoropyrimidin-2-yl)piperidine-4-carbonyl]-3,5-dihydro-2H-pyrido[3,4-f][1,4]oxazepine-9-carbonitrile]	100 to 1000 nM
N#Cc1cncc2c1OCCN(C(=O)C1(F)CCN(c3ncc(F)cn3)CC1(F)F)C2 (single isomer, unassigned) [Example 296, 4-[3,3,4-Trifluoro-1-(5-fluoropyrimidin-2-yl)piperidine-4-carbonyl]-3,5-dihydro-2H-pyrido[3,4-f][1,4]oxazepine-9-carbonitrile]	0.1 to 100 nM
CC1(C(=O)N2CCOc3c(C#N)cncc3C2)CCN(c2ncccn2)CC1(F)F (single isomer, unassigned) [Example 297, 4-[3,3-Difluoro-4-methyl-1-pyrimidin-2-yl-piperidine-4-carbonyl]-3,5-dihydro-2H-pyrido[3,4-f][1,4]oxazepine-9-carbonitrile]	0.1 to 100 nM
CC1(C(=O)N2CCOc3c(C#N)cncc3C2)CCN(c2ncccn2)CC1(F)F (single isomer, unassigned) [Example 298, 4-[3,3-Difluoro-4-methyl-1-pyrimidin-2-yl-piperidine-4-carbonyl]-3,5-dihydro-2H-pyrido[3,4-f][1,4]oxazepine-9-carbonitrile]	> 1000 nM
CC1(C(=O)N2CCOc3c(C#N)cncc3C2)CCN(c2ncc(F)cn2)CC1F (single isomer, unassigned) [Example 299, 4-[3-Fluoro-1-(5-fluoropyrimidin-2-yl)-4-methyl-piperidine-4-carbonyl]-3,5-dihydro-2H-pyrido[3,4-f][1,4]oxazepine-9-carbonitrile]	0.1 to 100 nM
CC1(C(=O)N2CCOc3c(C#N)cncc3C2)CCN(c2ncc(F)cn2)CC1F (single isomer, unassigned) [Example 300, 4-[3-Fluoro-1-(5-fluoropyrimidin-2-yl)-4-methyl-piperidine-4-carbonyl]-3,5-dihydro-2H-pyrido[3,4-f][1,4]oxazepine-9-carbonitrile]	0.1 to 100 nM
N#Cc1cncc2c1OCCN(C(=O)C1CCN(c3nccn4ncnc34)CC1F)C2 (single isomer, unassigned) [Example 301, 4-[3-Fluoro-1-([1,2,4]triazolo[1,5-a]pyrazin-8-yl)piperidine-4-carbonyl]-3,5-dihydro-2H-pyrido[3,4-f][1,4]oxazepine-9-carbonitrile]	100 to 1000 nM
N#Cc1cncc2c1OCCN(C(=O)C1CCN(c3nccn4ncnc34)CC1F)C2 (single isomer, unassigned) [Example 302, 4-[3-Fluoro-1-([1,2,4]triazolo[1,5-a]pyrazin-8-yl)piperidine-4-carbonyl]-3,5-dihydro-2H-pyrido[3,4-f][1,4]oxazepine-9-carbonitrile]	0.1 to 100 nM
N#Cc1cncc2c1OCCN(C(=O)C1CCN(c3ccnc4c(F)cnn34)CC1F)C2 (single isomer, unassigned) [Example 303, 4-[3-Fluoro-1-(3-fluoropyrazolo[1,5-a]pyrimidin-7-yl)piperidine-4-carbonyl]-3,5-dihydro-2H-pyrido[3,4-f][1,4]oxazepine-9-carbonitrile]	100 to 1000 nM
N#Cc1cncc2c1OCCN(C(=O)C1CCN(c3ccnc4c(F)cnn34)CC1F)C2 (single isomer, unassigned) [Example 304, 4-[3-Fluoro-1-(3-fluoropyrazolo[1,5-a]pyrimidin-7-yl)piperidine-4-carbonyl]-3,5-dihydro-2H-pyrido[3,4-f][1,4]oxazepine-9-carbonitrile]	0.1 to 100 nM

Reference: patent US11203600B2 (Denali Therapeutics Inc., priority 2017, dated 2021)
